Experimental data taken from article PMC12447391 (2025).

What was measured:
[1] = tested on: TESS.1_trimmed in Apta-gel (DNA, aptamer) ACGGGATGTCCGGGGTACGGTGGTTGCAGTTCGTTTTTTTCCGATTACAGCC; experiment: OECT transient response, equilibrium titration; conditions: PBS, immobilised aptamer
[2] = tested on: Ref in Apta-gel (DNA, aptamer) CGACCGGTCTGGGGACCCTGTCTGGGTGTGTGGGTAGTAGGTCGTTTTTTCCGATTACAGCC; experiment: OECT transient response, equilibrium titration; conditions: PBS, 21 °C; apparent; immobilised aptamer
[3] = tested on: Ref in Apta-gel (DNA, aptamer) CGACCGGTCTGGGGACCCTGTCTGGGTGTGTGGGTAGTAGGTCGTTTTTTCCGATTACAGCC; experiment: nonfaradic EIS of Apta-gel; conditions: PBS; effective capacitance rises at 21 °C, falls at 35 °C
[4] = tested on: R5MPT in Apta-gel (DNA, aptamer) CGGGCGACGGGGATTTTTGGTGCACTATGTGGTTCGTTCGGGGTGGGCTGCGTTCTCCATTCTGGTTTTTTCCGATTACAGCC; experiment: OECT flow-cell kinetics (koff/kon); conditions: PBS, 25 °C; apparent; kon 201.4 M^-1 s^-1, koff 0.0067 s^-1; immobilised aptamer
[5] = tested on: Ref (DNA, aptamer) CGACCGGTCTGGGGACCCTGTCTGGGTGTGTGGGTAGTAGGTCGTTTTTTCCGATTACAGCC; experiment: ITC; conditions: PBS, 25 °C
[6] = tested on: R5MPT (DNA, aptamer) CGGGCGACGGGGATTTTTGGTGCACTATGTGGTTCGTTCGGGGTGGGCTGCGTTCTCCATTCTGGTTTTTTCCGATTACAGCC; experiment: ITC; conditions: PBS, 25 °C
[7] = tested on: R5MPT (DNA, aptamer) CGGGCGACGGGGATTTTTGGTGCACTATGTGGTTCGTTCGGGGTGGGCTGCGTTCTCCATTCTGGTTTTTTCCGATTACAGCC; experiment: CD; conditions: PBS, 25 °C; 1 μM aptamer, 1 μM cortisol; peaks shift

SMILES | KD, apparent [1] [µM] | KD [2] [µM] | binding [3] | KD [4] [µM] | KD [5] [µM] | KD [6] [µM] | binding [7]
C[C@]12CC[C@H]3[C@@H](CCC4=CC(=O)CC[C@@]43C)[C@@H]1CC[C@@H]2O | 0.303 |  |  |  |  |  | 
C[C@]12CCC(=O)C=C1CC[C@@H]1[C@@H]2[C@@H](O)C[C@@]2(C)[C@H]1CC[C@]2(O)C(=O)CO |  | 45.95 | yes | 33 | 3.75 | 10.2 | yes
